Assay results taken from patent publication US9637472B2, “Substituted 6,5-fused bicyclic heteroaryl compounds” (Epizyme, Inc., priority 2011, dated 2017).
pIC50: −log10 of the molar value.

Target: EZH2 (Homo sapiens (Human), UniProt Q15910)
Assay: PRC2 enzyme assay on peptide substrates
Assay type: biochemical
Conditions: PRC2 enzyme assays on peptide substrates; 4 nM enzyme, 30 min preincubation at 25° C.; read-out: EZH2 IC50
Source text: General Materials. S-adenosylmethionine (SAM), S-adenosylhomocyteine (SAH), bicine, KCl, Tween20, dimethylsulfoxide (DMSO) and bovine skin gelatin (BSG) were purchased from Sigma-Aldrich at the highest level of purity possible. Dithiothreitol (DTT) was purchased from EMD. ^3H-SAM was purchased from American Radiolabeled Chemicals with a specific activity of 80 Ci/mmol. 384-well streptavidin Flashplates were purchased from PerkinElmer.
Substrates. […] The sequences are listed below.
Recombinant PRC2 Enzymes. Human PRC2 enzymes were purified as 4-component enzyme complexes co-expressed in Spodoptera frugiperda (sf9) cells using a baculovirus expression system. The subunits expressed were wild-type EZH2 (NM_004456) or EZH2 Y641F, N, H, S or C mutants generated from the wild-type EZH2 construct, EED (NM_003797), Suz12 (NM_015355) and RbAp48 (NM_005610). The EED subunit contained an N-terminal FLAG tag that was used to purify the entire 4-component complex from sf9 cell lysates.
General Procedure for PRC2 Enzyme Assays on Peptide Substrates. The assays were all performed in a buffer consisting of 20 mM bicine (pH=7.6), 0.5 mM DTT, 0.005% BSG and 0.002% Tween20, prepared on the day of use. […] DMSO (1 μL) was added to columns 11, 12, 23, 24, rows A-H for the maximum signal control, and SAH, a known product and inhibitor of PRC2 (1 μL) was added to columns 11, 12, 23, 24, rows I-P for the minimum signal control. A cocktail (40 μL) containing the wild-type PRC2 enzyme and H3K27me0 peptide or any of the Y641 mutant enzymes and H3K27me2 peptide was added by Multidrop Combi (Thermo). The compounds were allowed to incubate with PRC2 for 30 min at 25° C., then a cocktail (10 μL) containing a mixture of non-radioactive and ^3H-SAM was added to initiate the reaction (final volume=51 μL). […] The assays were stopped by the addition of non-radioactive SAM (10 μL) to a final concentration of 600 μM, which dilutes the ^3H-SAM to a level where its incorporation into the peptide substrate is no longer detectable. 50 μL of the reaction in the 384-well polypropylene plate was then transferred to a 384-well Flashplate and the biotinylated peptides were allowed to bind to the streptavidin surface for at least 1 h before being washed three times with 0.1% Tween20 in a Biotek ELx405 plate washer. The plates were then read in a PerkinElmer TopCount platereader to measure the quantity of ^3H-labeled peptide bound to the Flashplate surface, measured as disintegrations per minute (dpm) or alternatively, referred to as counts per minute (cpm).
Where dpm=disintegrations per minute, cmpd=signal in assay well, and min and max are the respective minimum and maximum signal controls.
Where top and bottom are the normally allowed to float, but may be fixed at 100 or 0 respectively in a 3-parameter fit. The Hill Coefficient normally allowed to float but may also be fixed at 1 in a 3-parameter fit. Y is the % inhibition and X is the compound concentration.

EZH2, sequence (Q15910 other isoform, or with tags, fused parts or gaps): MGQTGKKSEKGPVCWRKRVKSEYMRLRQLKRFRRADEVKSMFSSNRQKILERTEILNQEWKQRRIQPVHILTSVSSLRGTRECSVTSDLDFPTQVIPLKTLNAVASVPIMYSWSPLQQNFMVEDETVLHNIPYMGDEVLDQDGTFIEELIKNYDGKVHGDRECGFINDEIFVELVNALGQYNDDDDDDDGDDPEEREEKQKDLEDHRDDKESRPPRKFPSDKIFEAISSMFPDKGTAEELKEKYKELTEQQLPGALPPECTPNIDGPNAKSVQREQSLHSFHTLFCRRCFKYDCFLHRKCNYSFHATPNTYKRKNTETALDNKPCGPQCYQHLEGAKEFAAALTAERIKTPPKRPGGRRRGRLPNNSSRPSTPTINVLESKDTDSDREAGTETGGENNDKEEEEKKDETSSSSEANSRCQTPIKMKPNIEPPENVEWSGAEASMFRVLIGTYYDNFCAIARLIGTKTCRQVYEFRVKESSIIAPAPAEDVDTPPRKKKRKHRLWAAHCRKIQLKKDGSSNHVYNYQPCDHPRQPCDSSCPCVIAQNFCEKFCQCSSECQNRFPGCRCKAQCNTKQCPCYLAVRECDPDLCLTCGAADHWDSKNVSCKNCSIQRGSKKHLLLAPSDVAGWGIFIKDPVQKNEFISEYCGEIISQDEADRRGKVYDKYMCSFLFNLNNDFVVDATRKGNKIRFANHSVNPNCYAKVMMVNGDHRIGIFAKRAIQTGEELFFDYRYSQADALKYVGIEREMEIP
EZH2, sequence (O75530 whole entry partner): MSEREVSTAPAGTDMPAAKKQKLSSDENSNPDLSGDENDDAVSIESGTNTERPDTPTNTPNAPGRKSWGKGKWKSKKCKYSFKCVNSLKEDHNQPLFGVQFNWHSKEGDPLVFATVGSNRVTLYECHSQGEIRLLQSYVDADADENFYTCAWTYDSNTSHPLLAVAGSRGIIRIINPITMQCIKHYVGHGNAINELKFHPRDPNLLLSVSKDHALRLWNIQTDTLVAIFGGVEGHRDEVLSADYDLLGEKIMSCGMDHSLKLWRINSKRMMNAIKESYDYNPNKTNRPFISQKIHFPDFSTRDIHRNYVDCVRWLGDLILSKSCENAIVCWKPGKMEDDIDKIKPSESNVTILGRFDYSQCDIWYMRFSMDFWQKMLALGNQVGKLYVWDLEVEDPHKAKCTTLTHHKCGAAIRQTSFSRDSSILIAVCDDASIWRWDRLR
EZH2, sequence (Q15022 whole entry partner): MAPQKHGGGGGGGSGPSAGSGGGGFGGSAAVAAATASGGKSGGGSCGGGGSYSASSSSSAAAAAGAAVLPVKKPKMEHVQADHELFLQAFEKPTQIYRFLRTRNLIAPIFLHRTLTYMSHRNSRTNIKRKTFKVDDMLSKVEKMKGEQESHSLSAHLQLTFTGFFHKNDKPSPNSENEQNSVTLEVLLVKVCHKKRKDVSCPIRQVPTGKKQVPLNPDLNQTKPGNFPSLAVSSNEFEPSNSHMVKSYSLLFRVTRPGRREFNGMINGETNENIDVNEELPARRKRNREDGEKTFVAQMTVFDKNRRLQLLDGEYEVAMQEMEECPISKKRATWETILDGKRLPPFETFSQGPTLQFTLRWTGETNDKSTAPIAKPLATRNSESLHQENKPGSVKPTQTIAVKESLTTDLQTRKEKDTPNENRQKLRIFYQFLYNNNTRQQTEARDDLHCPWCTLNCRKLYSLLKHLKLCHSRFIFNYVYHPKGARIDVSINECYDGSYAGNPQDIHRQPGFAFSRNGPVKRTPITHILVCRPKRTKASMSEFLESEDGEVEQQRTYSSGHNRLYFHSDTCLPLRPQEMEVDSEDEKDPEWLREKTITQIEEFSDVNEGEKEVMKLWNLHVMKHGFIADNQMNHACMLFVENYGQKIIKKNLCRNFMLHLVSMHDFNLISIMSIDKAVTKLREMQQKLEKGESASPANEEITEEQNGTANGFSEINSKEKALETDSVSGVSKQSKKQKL
EZH2, sequence (Q09028 whole entry partner): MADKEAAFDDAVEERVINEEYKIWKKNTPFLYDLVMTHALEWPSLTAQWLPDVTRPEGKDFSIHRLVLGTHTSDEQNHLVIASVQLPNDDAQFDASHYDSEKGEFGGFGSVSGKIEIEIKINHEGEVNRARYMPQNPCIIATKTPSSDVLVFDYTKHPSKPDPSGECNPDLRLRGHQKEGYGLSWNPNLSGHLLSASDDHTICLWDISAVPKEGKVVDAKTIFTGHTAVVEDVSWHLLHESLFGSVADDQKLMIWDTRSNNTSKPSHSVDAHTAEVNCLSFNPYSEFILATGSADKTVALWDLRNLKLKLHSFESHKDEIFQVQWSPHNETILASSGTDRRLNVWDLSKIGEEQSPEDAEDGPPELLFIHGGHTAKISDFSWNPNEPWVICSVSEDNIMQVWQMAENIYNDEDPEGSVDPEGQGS

SMILES	pIC50
Cc1cc(CN2CCNC(=O)C2)c(CNC(=O)c2cc(Br)cc3c2cnn3C2CCCC2)c(=O)[nH]1 [Compound D-69]	5.52 to 6.00
Cc1cc(C)c(CNC(=O)c2ccnc3c2ccn3C(C)C)c(=O)[nH]1 [Compound F-1]	5.00 to 5.52
Cc1cc(C)c(CNC(=O)c2cc(-c3ccc(CN4CCNC(=O)C4)cc3)cc3c2cnn3C2CCCC2)c(=O)[nH]1 [Compound C-25]	> 6.52
Cc1cc(C)c(CNC(=O)c2cc(N3CCC(O)CC3)nc3c2cnn3C(C)C)c(=O)[nH]1 [Compound B-11, N-((4,6-dimethyl-2-oxo-1,2-dihydropyridin-3-yl)methyl)-6-(4-hydroxypiperidin-1-yl)-1-isopropyl-1H-pyrazolo[3,4-b]pyridine-4-carboxamide]	5.52 to 6.00
Cc1cc(C)c(CNC(=O)c2cc(Br)cc3c2cnn3C2CCN(C(=O)C(C)C)CC2)c(=O)[nH]1 [Compound D-42]	> 6.52
CNCCN(C)Cc1cccc(-c2cc(C(=O)NCc3c(C)cc(C)[nH]c3=O)c3c(n2)N(C(C)C)NC3)c1 [Compound A-58]	5.52 to 6.00
CNCCN1CC=C(c2cc(C(=O)NCc3c(C)cc(C)[nH]c3=O)c3cnn(C4CCCC4)c3c2)CC1 [Compound D-48]	> 6.52
Cc1cc(C)c(CNC(=O)c2cc(Br)cc3c2cnn3C2CCN(C(=O)C3CCCC3)CC2)c(=O)[nH]1 [Compound D-26]	6.00 to 6.52
Cc1cc(C)c(CNC(=O)c2cc(-c3cccc(COCCN)c3)cc3c2cnn3C2CCCC2)c(=O)[nH]1 [Compound C-23]	> 6.52
Cc1cc(CN(C)C)c(CNC(=O)c2cccc3c2cnn3C2CCCC2)c(=O)[nH]1 [Compound D-81]	5.00 to 5.52
COCCOCc1cc(C(=O)NCc2c(C)cc(C)[nH]c2=O)c2cnn(C3CCCC3)c2c1 [Compound D-72]	5.52 to 6.00
Cc1cc(C)c(CNC(=O)c2cc(C3=CCN(C(=O)C(O)CN)CC3)nc3c2cnn3C(C)C)c(=O)[nH]1 (stereo not drawn) [Compound B-70]	6.00 to 6.52
Cc1cc(C)c(CNC(=O)c2cc(-c3cccc(CN(C)CCO)c3)cc3c2cnn3C2CCCC2)c(=O)[nH]1 [Compound C-29]	> 6.52
Cc1cc(C)c(CNC(=O)c2cc(N3CCC(N4CCN(C(=O)OC(C)(C)C)CC4)CC3)nc3c2cnn3C(C)C)c(=O)[nH]1 [Compound B-108]	5.52 to 6.00
Cc1cc(C)c(CNC(=O)c2cc(CO)cc3c2cnn3C2CCCC2)c(=O)[nH]1 [Compound D-8, 1-cyclopentyl-N-((4,6-dimethyl-2-oxo-1,2-dihydropyridin-3-yl)methyl)-6-(hydroxymethyl)-1H-indazole-4-carboxamide]	6.00 to 6.52
Cc1cc(C)c(CNC(=O)c2cc(C3CCN(CCCN(C)C)CC3)cc3c2cnn3C2CCCC2)c(=O)[nH]1 [Compound D-30]	> 6.52
CCc1cc(C(=O)NCc2c(C)cc(C)[nH]c2=O)c2cnn(C3CCCC3)c2c1 [Compound D-60]	6.00 to 6.52
Cc1cc(C)c(CNC(=O)c2cc(-c3ccc(CN4CCC[C@@H]4C(N)=O)cc3)cc3c2cnn3C2CCCC2)c(=O)[nH]1 [Compound C-13, (R)-6-(4-((2-carbamoylpyrrolidin-1-yl)methyl)phenyl)-1-cyclopentyl-N-((4,6-dimethyl-2-oxo-1,2-dihydropyridin-3-yl)methyl)-1H-indazole-4-carboxamide]	> 6.52
CCC(=O)N1CCC(n2ncc3c(C(=O)NCc4c(C)cc(C)[nH]c4=O)cc(Br)cc32)CC1 [Compound D-55]	6.00 to 6.52
CC(=O)N1CC=C(c2cc(C(=O)NCc3c(C)cc(C)[nH]c3=O)c3cnn(C(C)C)c3n2)CC1 [Compound B-64]	6.00 to 6.52
Cc1cc(C)c(CNC(=O)c2cc(CNCCN(C)C)cc3c2cnn3C2CCCC2)c(=O)[nH]1 [Compound D-53]	6.00 to 6.52
CNCCN1CCC(c2cc(C(=O)NCc3c(C)cc(C)[nH]c3=O)c3cnn(C4CCCC4)c3c2)CC1 [Compound D-51]	> 6.52
Cc1cc(C)c(CNC(=O)c2cc(-c3ccc(OCCCN(C)C)cc3)cc3c2cnn3C2CCCC2)c(=O)[nH]1 [Compound C-35]	> 6.52
Cc1[nH]c(=O)c(CNC(=O)c2cc(C3CC(C)(C)NC(C)(C)C3)nc3c2cnn3C(C)C)c(C)c1Cc1ccccc1 [Compound B-145]	4.30 to 5.00
